Data reported in patent publication US20250264460A1, “METHOD OF MEASURING LEVEL OF IMMUNE SUPPRESSION” (THE JOHNS HOPKINS UNIVERSITY, priority 2022, published 2025).
Entries after “also recorded” stand apart in the source; their conditions may differ. Where two headings read alike, the source gives them in different places.

Assays:
PBMCs [1] = assay: Seahorse XF Cell Mito Stress Test (OCR) of PBMCs from SOTRs, ex vivo; assay type: in vivo, human
Method: (§1) FIGS. 4A-4J show high dose MMF inhibits mitochondrial fatty acid oxidation. FIGS. 4A-4B show normalized mean fluorescent intensity (MFI) of CD11c and CPT1a on total class-switched B cells segregated by dose of MMF; high (>1000), low (<1000), or none. […] FIGS. 4D-4E show oxygen consumption rate (OCR) following mitochondrial stress test of PBMCs plated directly post thaw from SOTRs or HCs (FIG. 4D) or healthy PBMCs treated in vitro with high or low dose MPA 48 hours prior to plating (FIG. 4E).
(§2) Due to the association with MMF dose and CPT1a expression, PBMCs from SOTRs receiving high dose, low dose, or no MMF were evaluated ex vivo for alterations in lipid metabolism. Immunosuppression dose is largely determined by estimation of graft function and the measurement of the blood levels of immunosuppressive drugs, although neither method is sensitive or specific for determining the current immunosuppressive status, particularly for MMF, where drug levels are not routinely measured. […] Mitochondrial bioenergetics were next measured directly ex vivo via the Agilent Seahorse XF Cell Mito Stress Test at basal levels and in response to mitochondrial stress, in the absence of additional stimulation or exogenous substrates. The oxygen consumption rate (OCR) was used as a measurement of mitochondrial respiration/oxidative phosphorylation (OXPHOS).

PBMCs [2] = assay: Oil red O staining of lipid droplets in PBMCs from SOTRs, ex vivo; design: species or system human; conditions: PBMCs from SOTRs on high dose MMF
Method: as §1
as §2, with “(OXPHOS). […]” for “(OXPHOS).”

class-switched B cells = assay: Flow cytometry of CD11c and CPT1a on class-switched B cells of SOTRs by MMF dose; assay type: in vivo, human; conditions: SOTRs on high dose MMF or MPA (>1000 mg/per day or >721 mg/day)
Method: as §1

SARS-COV-2 spike = assay type: in vivo, human; conditions: SOTRs on immunosuppression, two weeks post dose three
PBMCs [3] = assay: Viability of PBMCs after MPA treatment; assay type: cell-based, human; conditions: PBMCs 48 hours after 5 μM MPA, versus untreated
healthy PBMCs [4] = assay: Oil red O staining of healthy PBMCs treated in vitro with MPA; assay type: cell-based, human; conditions: high dose MPA (5 μM)
Method: Genes associated lipid synthesis were increased in total B cells from SOTRs (R or NR) in SCR.NA seq (FIG. 14A). PCA plot of lipidomics performed on total B cells derived from SOTRs or HCs (FIG. 14B). […] Accumulation of lipid droplets were measured by Oil Red O in PBMCs from HC or SOTR (FIG. 14D).

healthy PBMCs [5] = assay: Seahorse OCR of healthy PBMCs treated in vitro with MPA; assay type: cell-based, human; conditions: for OCR: 48 hours prior to plating; for Effect on OCR increase of low dose MPA-treated cells: etomoxir (2 μM) 1 hour prior to measurement
Method: as §1
FIGS. 8A-81 show high dose MPA induces mitochondrial unresponsiveness. […] FIGS. 8D-8G show healthy PBMCs were treated with 5 μM MPA for 24 hours in complete media then rested overnight in low-nutrient media prior to analysis. Oxygen consumption rate (OCR) of exposed to long chain fatty acid palmitate (165 μM) (FIG. 8D), medium chain fatty acid octanoic acid (200 μM) (FIG. 8E), glucose (10 mM) and pyruvate (1 mM) (FIG. 8F), or glutamine (2 mM) (FIG. 8G) 20 minutes prior to analysis. FIGS. 8H-81 show fold change in baseline (FIG. 8H) or maximal (FIG. 81) OCR when healthy PBMCs were supplied with indicated substrates.
To test this hypothesis, cells were exposed to low dose etomoxir, an inhibitor of CPT1a transport of FAs into mitochondria. […] To confirm that high dose MPA inhibits FAO, palmitate (a long chain FA) was added exogenously to cultures 20 minutes prior to evaluation of mitochondrial respiration.

T cells and B cells = assay: Cell Trace Violet proliferation of stimulated T cells and B cells in the presence of MPA; assay type: cell-based, human; conditions: 6 days
B cells and T cells = assay: OCR of B cells and T cells treated with MPA and etomoxir; assay type: cell-based, human
Description: FIGS. 16A-16C show low dose MPA induces CPT1a-dependent FAO in B cells but not T cells.

[6] = etomoxir (CPT1a inhibition), MPA-treated

COc1c(C)c2c(c(O)c1C/C=C(\C)CCC(=O)OCCN1CCOCC1)C(=O)OC2 [MMF, mycophenolate mofetil]
Oxygen consumption rate (OCR) (PBMCs [1]; PBMCs from SOTRs on high dose MMF): reduced oxygen consumption rate; also recorded: reduced OCR compared to other SOTRs | Basal respiration (OCR) (PBMCs [1]; PBMCs from SOTRs on low dose MMF, no exogenous substrates): significantly higher basal respiration compared to HCs | Intracellular lipid droplets (Oil Red O) (PBMCs [2]): higher levels of Oil Red O staining; also recorded: accumulation of intracellular lipid droplets | CD11c expression on class switched B cells (class-switched B cells): significantly lower | CPT1a expression on class switched B cells (class-switched B cells): significantly lower | Association of treatment with anti-S IgG response to third vaccine dose (SARS-COV-2 spike): specifically associated with a lack of response | Association of treatment with anti-S IgG response to third vaccine dose (SARS-COV-2 spike; listed as mycophenolate mofetil): all participants who failed to respond to a 3rd dose received

COc1c(C)c2c(c(O)c1C/C=C(\C)CCC(=O)O)C(=O)OC2 [MPA, mycophenolic acid]
Cell viability (PBMCs [3]): equivalent cell viability | Accumulation of lipids (Oil Red O) (healthy PBMCs [4]): increased accumulation of lipids | Accumulation of lipids (Oil Red O) (healthy PBMCs [4]; listed as mycophenolic acid): Accumulation of lipid droplets was seen | Response to mitochondrial stress tests (healthy PBMCs [5]; high dose MPA): comparable manner to untreated cells | Mitochondrial oxidation of supplemented substrates (medium-chain fatty acids, glucose, glutamine) (healthy PBMCs [5]; high dose MPA (5 μM)): inhibits mitochondrial oxidation of various substrates; also recorded: diminished mitochondrial oxidation of various supplemented substrates | OCR (healthy PBMCs [5]; high dose MPA (5 μM)): reduced OCR compared to low dose | Oxidation of exogenous palmitate (OCR) (healthy PBMCs [5]; high dose MPA, palmitate (165 μM) 20 minutes prior): not able to oxidize exogenous long-chain fatty acid palmitate; also recorded: unable to oxidize palmitate | OCR (healthy PBMCs [5]; low dose MPA): directly induced increased OCR; also recorded: increased OCR compared to untreated PBMCs | Lymphocyte proliferation (T cells and B cells; high dose MPA (5 μM)): completely inhibit proliferation | Lymphocyte proliferation (T cells and B cells; low dose MPA (0.05 μM)): limit proliferation | CD11c expression on class switched B cells (class-switched B cells): significantly lower | CPT1a expression on class switched B cells (class-switched B cells): significantly lower | OCR of B cells (B cells and T cells; high dose MPA): blunted the increased OCR in B cells | OCR of B cells versus T cells (B cells and T cells; low dose MPA): only B cells increased their OCR

CCOC(=O)[C@@]1(CCCCCCOc2ccc(Cl)cc2)CO1 [etomoxir]
Effect on OCR increase of low dose MPA-treated cells (healthy PBMCs [5]): completely reversed the increase in OCR | Effect on OCR increase of low dose MPA-treated cells (healthy PBMCs [5]; listed as Etomoxir): completely reversed the increase of OCR | OCR of B cells (B cells and T cells; [6]): reduced OCR to baseline levels in B cells | OCR of T cells (B cells and T cells; [6]): had no effect on T cells
